Source: patent US20230250108A1, “TETRAHYDROISOQUINOLINE COMPOUNDS AND USE THEREOF” (JIANGSU SIMCERE PHARMACEUTICAL CO., LTD., priority 2020, published 2023)

Experiments:
[1] = system: Z-138 subcutaneous tumor models; assay: In vivo drug efficacy experiment in mice, Z-138 subcutaneous tumor model
Source text: Experimental materials: Z138 cells were purchased from ATCC; IMDM culture solution, penicillin-streptomycin and 0.25% trypsin-EDTA were purchased from Gibco; horse serum and PBS were purchased from Hyclone; and Matrigel was purchased from Corning.
Animal information: CB17-SCID mice (female, 6-7 weeks, body weight: about 14-20 g) were purchased from Shanghai Lingchang Biotechnology Co., Ltd. The mice were fed in SPF environment and each cage position was individually ventilated. All animals had free access to standard certified commercial laboratory food and water.
Cell culture: Human mantle cell lymphoma Z-138 cell lines were cultured in vitro and the culture conditions involve: IMDM (cell culture solution) supplemented with 10% horse serum and 1% penicillin-streptomycin solution, 37° C., 5% CO2 incubator. Conventional digestion treatment with 0.25% trypsin-EDTA digestion solution was carried out twice a week for passage. When the cell saturation was 85%-90%, and the number reached the requirement, the cells were collected and counted.
Cell inoculation: 0.1 ml/(containing 1×10^7) Z-138 cell suspension (PBS Matrigel=1:1) was inoculated subcutaneously on the right back of each mouse. At day 18 post inoculation, when the average tumor volume measured has reached about 125 mm^3, grouping and administration were performed by using the randomized stratification and grouping method based on the tumor volume and animal body weight. PBS was a phosphate buffer free of Ca and Mg ions, and Matrigel was a matrix gel.
Administration: Compound 002 was administered at the doses of 1.5 mg/kg, 5 mg/kg, or 15 mg/kg, PO, twice daily (BID)×3 weeks. 6 mice per group.
The diameter of the tumor was measured with vernier calipers twice a week. The calculation formula of tumor volume was V=0.5a×b2, wherein a and b represented the long and short diameters of the tumor, respectively. The body weights of the mice were weighed twice a week.
The tumor-inhibiting efficacy of the compound was evaluated using tumor growth inhibition (TGI) (%).
TGI (%)=[(1−(average tumor volume at the end of administration in a certain treatment group−average tumor volume at the beginning of administration in the treatment group)/(average tumor volume at the end of administration in the solvent control group−average tumor volume at the beginning of administration in the solvent control group)]×100%.

[2] = Pharmacokinetic experiment in mice; type: in vivo, CB17-SCID mice
Source text: Experimental materials: GB17-SCID mice were purchased from Beijing Vital River Laboratory Animal Technology Co., Ltd.; DMSO, HP-β-CD (Hydroxypropyl-β-cyclodextrin), MC (methyl cellulose) and acetonitrile were purchased from Merck & Co., Inc. (USA), and K2EDTA anticoagulation tubes were purchased from Jiangsu Xinkang Medical Instrument Co., Ltd.
Experiment method: Six female CB17-SCID mice (20-30 g, 4-6 weeks) were randomized into 2 groups, 3 mice/group. Group 1 was given compound 002 via tail vein injection at a dose of 2 mg/kg, and the vehicle was 5% of DMSO+95% of 10% HP-β-CD aqueous solution; and group 2 was given compound 002 orally at a dose of 10 mg/kg, and the vehicle was 0.5% MC aqueous solution. Prior to the experiment, the animals were given food and water as usual. At pre-dose and 0.083 (only for the vein injection group), 0.25, 0.5, 1, 2, 4, 6, 8 and 24 h post-dose, blood was sampled from the mice in each group from the vein. The whole blood sample collected was placed in a K2EDTA anticoagulation tube and centrifuged for 5 min (4000 rpm, 4° C.) and then the plasma was taken for detection.
10 μL of the mouse plasma sample was taken and 150 μL of acetonitrile solvent (wherein internal standard compound was contained) was added to precipitate proteins. After the mixture was vortexed for 0.5 min, centrifugation (4700 rpm, 4° C.) was performed for 15 min. The supernatant was diluted 2-fold with water containing 0.05% (v/v) formic acid and 3 μL was injected into the LC-MS/MS system (AB Sciex Triple Quad 6500+) for the quantitative detection. The concentrations of the samples were determined with the present of plasma standard curve (linear range: 0.5-1000 ng/mL) of CB17-SCID mice and quality control samples. For the preparation of 10-fold diluted samples, 2 μL of mouse plasma sample was taken and 18 μL of blank plasma was added. After the mixture was vortexed for 0.5 min, 300 μL of acetonitrile solvent (wherein internal standard compound was contained) was added to precipitate proteins. The other processing steps were identical to those for the samples not diluted.

[3] = tested doses 1.5, 5, 15 mg/kg BID
[4] = female, CB17-SCID, mouse, plasma, 10 mg/kg, Mice PO (10 mpk)

Compound: CCN1CCN(C[C@@H](O)[C@@H]2Cc3ccccc3CN2)C(=O)c2ccc(C(=O)N3CCC4(CC3)CC(OC)C4)cc21.Cl [Compound 002, 1-ethyl-4-((R)-2-hydroxy-2-((S)-1,2,3,4-tetrahydroisoquinolin-3-yl)ethyl)-8-(2-methoxy-7-azaspiro[3.5]nonane-7-carbonyl)-1,2,3,4-tetrahydro-5H-benzo[e][1,4]diazepin-5-one hydrochloride]
- TGI ([1]; 1.5 mg/kg PO BID x 3 weeks): 36.0%
- Average tumor volume ([1]; 1.5 mg/kg PO BID, 0 Day): 125 mm^3
- Average tumor volume ([1]; 1.5 mg/kg PO BID, 4 Day): 151 mm^3
- Average tumor volume ([1]; 1.5 mg/kg PO BID, 7 Day): 203 mm^3
- Average tumor volume ([1]; 1.5 mg/kg PO BID, 11 Day): 374 mm^3
- Average tumor volume ([1]; 1.5 mg/kg PO BID, 14 Day): 436 mm^3
- Average tumor volume ([1]; 1.5 mg/kg PO BID, 18 Day): 567 mm^3
- Average tumor volume ([1]; 1.5 mg/kg PO BID, 21 Day): 689 mm^3
- TGI ([1]; 5 mg/kg PO BID x 3 weeks): 47.8%
- Average tumor volume ([1]; 5 mg/kg PO BID, 0 Day): 124 mm^3
- Average tumor volume ([1]; 5 mg/kg PO BID, 4 Day): 157 mm^3
- Average tumor volume ([1]; 5 mg/kg PO BID, 7 Day): 197 mm^3
- Average tumor volume ([1]; 5 mg/kg PO BID, 11 Day): 281 mm^3
- Average tumor volume ([1]; 5 mg/kg PO BID, 14 Day): 310 mm^3
- Average tumor volume ([1]; 5 mg/kg PO BID, 18 Day): 452 mm^3
- Average tumor volume ([1]; 5 mg/kg PO BID, 21 Day): 585 mm^3
- TGI ([1]; 15 mg/kg PO BID x 3 weeks): 112.5%
- Average tumor volume ([1]; 15 mg/kg PO BID, 0 Day): 126 mm^3
- Average tumor volume ([1]; 15 mg/kg PO BID, 4 Day): 140 mm^3
- Average tumor volume ([1]; 15 mg/kg PO BID, 7 Day): 113 mm^3
- Average tumor volume ([1]; 15 mg/kg PO BID, 11 Day): 59 mm^3
- Average tumor volume ([1]; 15 mg/kg PO BID, 14 Day): 34 mm^3
- Average tumor volume ([1]; 15 mg/kg PO BID, 18 Day): 18 mm^3
- Average tumor volume ([1]; 15 mg/kg PO BID, 21 Day): 16 mm^3
- Death in mice [1, 3]: nor did they cause any death in mice
- Effect on body weights of the mice [1, 3]: do not significantly affect the body weights of the mice
- Tolerability [1, 3]: the mice can tolerate the doses
- Effect on tumor growth ([1]; twice daily at 1.5 mg/kg, 5 mg/kg and 15 mg/kg): significant inhibitory effects on tumor growth
- Effect on tumor size ([1]; twice daily at 15 mg/kg): effect of shrinking tumor
- Cl_obs ([2]; Mice IV (2 mpk)): 61.1 ± 6.2 mL/min/kg
- F ([2]; Mice PO (10 mpk)): 96.5 ± 20.5%
- half-life ([2]; female, CB17-SCID, mouse, plasma, 2 mg/kg, Mice IV (2 mpk)): 3.56 ± 0.55 h
- Vd ([2]; female, CB17-SCID, mouse, plasma, 2 mg/kg, Mice IV (2 mpk), read-out: Vss—obs): 8.2 ± 0.6 L/kg
- AUC(0-t) [2, 4]: 2650 ± 563 ng·h/mL
- Cmax [2, 4]: 827 ± 79 ng/mL
- Tmax [2, 4]: 0.33 ± 0.14 h
- half-life [2, 4]: 2.68 ± 0.2 h
